Laboratory results: US20090209598A1, “Resorcine Derivatives and Their Use as Pesticides” (priority 2005, published 2009)

Experiments:
Assay in all cases: whole plant or invertebrate
Assay type in all cases: in vivo
[1] = tested on: Southern Armyworm (Spodoptera Eridania), 2Nd Instar Larvae; conditions: in Phaseolus lunatus, foliar, 96 h, leaf dip, at 4 days, read-out: mortality in comparison with untreated controls
Experimental: 3. Activity Against Southern Armyworm (Spodoptera Eridania), 2Nd Instar Larvae
The active compounds were formulated for testing the activity against insects and arachnids as a 10.000 ppm solution in a mixture of 35% acetone and water, which was diluted with water, if needed.
A Sieva lima bean leaf was dipped in the test solution and allowed to dry. The leaf was then placed in a plastic perforated zip enclosure bag and ten 2nd instar larvae were added. At 4 days, observations are made of mortality and reduced feeding.

[2] = tested on: diamond back moth (plutella xylostella); conditions: foliar, cabbage leaf disk dip, third instar larvae, after 72 h, read-out: mortality in comparison with untreated controls
Experimental: 6. Activity against diamond back moth (plutella xylostella)
The active compounds were formulated in 50:50 acetone:water and 0.1% (vol/vol) Alkamuls EL 620 surfactant. A 6 cm leaf disk of cabbage leaves was dipped in the test solution for 3 seconds and allowed to air dry in a Petri plate lined with moist filter paper. The leaf disk was inoculated with 10 third instar larvae and kept at […] and 50-60% humidity for 3 days. Mortality was assessed after 72 h of treatment.

[3] = tested on: Boll Weevil (Anthonomus grandis); conditions: eggs sprayed with 20 μl test solution, 3 to 5 days
Experimental: 1. Activity Against Boll Weevil (Anthonomus grandis)
The active compounds were formulated in 1:3 DMSO:water. 10 to 15 eggs were placed into microtiterplates filled with 2% agar-agar in water and 300 ppm formaline. The eggs were sprayed with 20 μl of the test solution, the plates were sealed with pierced foils and kept at 24-26° C. and 75-85% humidity with a day/night cycle for 3 to 5 days. Mortality was assessed on the basis of the remaining unhatched eggs or larvae on the agar surface and/or quantity and depth of the digging channels caused by the hatched larvae. Tests were replicated 2 times.

[4] = tested on: Tobacco Budworm (Heliothis virescens); conditions: 144 h, eggs sprayed with 10 μl test solution, 6 days
Experimental: 2. Activity Against Tobacco Budworm (Heliothis virescens)
The active compounds were formulated in 1:3 DMSO:water. 15 to 25 eggs were placed into microtiterplates filled with diet. The eggs were sprayed with 10 μl of the test solution, the plates were sealed with pierced foils and kept at 27-29° C. and 75-85% humidity under fluorescent light for 6 days. Mortality was assessed on the basis of the agility and of comparative feeding of the hatched larvae. Tests were replicated 2 times.

FC(F)(F)c1ccc(OCCCCCCOc2cc(Cl)cc(OCC=C(Cl)Cl)c2)nc1 [I.2, 2-{6-[3-chloro-5-(3,3-dichloro-allyloxy)-phenoxy]-hexyloxy}-5-trifluoromethylpyridine]
mortality at 300 ppm [1]: ≥ 80%
mortality at 300 ppm [2]: ≥ 75%
mortality at 2500 ppm [3]: > 75%
mortality at 2500 ppm [4]: > 75%
